# Results as given in article PMC5930436, “Overexpressed HDAC8 in cervical cancer cells shows functional redundancy of tubulin deacetylation with HDAC6” (Cell Communication and Signaling : CCS, 2018).
# “Also recorded” adds a separate entry of the source.
# Legend:
# [1] = test system: HDAC8; assay: HDAC8 FLUOR DE LYS fluorometric enzyme activity assay on immunoprecipitated HDAC8 fractions; assay type: biochemical, human; details: Forskolin (10 μM); for HDAC8 enzyme activity, nuclear fraction: immunoprecipitated nuclear fraction (5 μg), vs untreated
# Protocol: HDAC8 enzyme activity assay was performed using HDAC8 FLUOR DE LYS fluorometric assay kit (Cat# BML-AK518–0001) for Control, PCI-34051(10 μM), Forskolin (10 μM), Tubastatin (5 μM) - treated and immunoprecipitated samples of either total, cytoplasmic and nuclear fractions of HeLa and HEK 293 T cells using anti-HDAC8 antibody and anti-HDAC6 (2 μg antibody for ~ 500 μg) according to the manufacturer’s protocol.
# [2] = test system: HDAC8; assay: Immunofluorescence / confocal localization of HDAC8 in HeLa and HEK 293 T cells; assay type: cell-based, human; details: Forskolin (10 μM), 45 min
# Protocol: (§1) Human embryonic kidney cells, HEK293T, human cervical carcinoma cells, HeLa, human breast cancer cells, MDA-MB 231, human lung adenocarcinoma cellsA549, chronic myeloid leukemia cells, K562, and human colon cancer cells, HCT11, were obtained from National Centre for Cell Sciences (NCCS), Pune, India. Cell line authentication by STR analysis was performed for 10 genetic loci for all the cell lines by Life code, Genomic technologies Pvt. Ltd., and tested for mycoplasma negative by performing PCR (mycoplasma specific genes) using EZdetect PCR kit for mycoplasma detection (CCK009). All the cells were cultured in high glucose DMEM medium containing 10% foetal bovine serum and 1% Penicillin/streptomycin (Himedia). Cells were seeded in 60 mm dishes and upon attaining 80–90% confluency, treatment was given with PCI-34051(Cayman Chemicals) (10 μM/20 μM) and tubastatin (5 μM) for 24 h or both in combination (PCI-34051 and Tubastatin) and Forskolin (Sigma) (10 μM) for 45 min independently along with untreated control as described earlier.
# HeLa and HEK 293 T cells (Control, Forskolin, PCI-34051 (20 μM) treated) were fixed with 4% formaldehyde in PBS for 20 min at RT followed by permeabilization with 0.25% TritonX-100 in PBS. […]
# [3] = test system: acetylated alpha tubulin, HeLa; assay: Immunoblot of acetylated alpha tubulin in HeLa cells; assay type: cell-based, human; details: Forskolin (10 μM), 45 min, immunoblot normalized with GAPDH
# Protocol: as §1
# (§2) Total, cytoplasmic and nuclear fractions of HeLa or HEK 293 T cells treated with or without PCI-34051 (20 μM), [12] tubastatin (5 μM) and/or forskolin (10 μM) were prepared as described previously. Total protein samples of HEK 293 T, HeLa, MDAMB 231, K562, A549 and HCT11 cells / immunoprecipitated HDAC8 and HDAC6 samples from both HeLa and HEK 293 T lysates / HDAC8 siRNA transfected HEK 293 T and HeLa lysates were also prepared. The proteins were separated on 10 or 12% SDS-PAGE, transferred on to nitrocellulose membrane and probed with primary antibodies of HDAC8, Beta actin, Alpha tubulin, anti-acetylated alpha tubulin, HDAC6 and GAPDH. The bands were visualized using chemiluminiscence after probing with HRP-conjugated secondary antibody.
# (§3) Source for siRNA oligonucleotides were considered from with sequence, HDAC8 Sense: […] and Anti-sense: […]. The oligonucleotides were converted into siRNA by following standard protocol as described earlier. HeLa and HEK 293 T cells were transfected with HDAC8 siRNA (10–15 μg/100 mm dish) using lipofectamine 2000 (Invitrogen), and considering untransfected as control. Cells were harvested after 72 h of post-transfection and processed for total RNA and protein isolation.
# [4] = test system: acetylated alpha tubulin, HEK 293 T; assay: Immunoblot of acetylated alpha tubulin in HEK 293 T cells; assay type: cell-based, human; details: HEK 293 T, Forskolin (10 μM), 45 min, immunoblot normalized with GAPDH
# Protocol: as §1, §2, §3
# [5] = test system: HDAC8; details: by phosphorylation (PKA); cited from earlier work
# Excerpt: The cytoplasmic localization of HDAC8 was further confirmed by immunoblot analysis using total, cytoplasmic and nuclear protein fractions of HEK 293 T and HeLa (Fig. 1d). […] With forskolin treatment, there was significant inc ... || In silico and spectroscopy based results have confirmed the interaction of HDAC8 with alpha tubulin & acetylated alpha tubulin peptide. To further validate the functional interaction we carried out IP and co-IP experiments with HDAC8 and acetylated alpha tubulin (ac-tubulin) antibodies. […] Densitometry results for the fold expression ...
# [6] = test system: HeLa cells; assay: Cell migration (wound) assay in HeLa cells; assay type: cell-based, human; details: PCI-34051 (10 μM) or Paclitaxel (10 μM), 24 and 48 h
# Protocol: HeLa cells are grown in 6 well plates in duplicates till it attains 90% confluency and starved with serum free media for overnight. Using a sterile 200 μl tip wound is created by drawing straight lines at three different points in each well. Detached cells are aspirated and washed three times with 1XPBS. Cells are treated with PCI-34051 (10 μM & 20 μM) and Paclitaxel (10 μM & 20 μM) dissolved in 2% FBS respectively along with control (untreated). Migrated cells into the wound were examined by capturing images using Olympus CKX41, ProgRes CT3 phase contrast microscope after 24 and 48 h.
# [7] = test system: HeLa cells; assay: Cell morphology analysis, HeLa; assay type: cell-based, human; details: HeLa, 20 μM, 24 & 48 h, vs control
# Protocol: (§4) HeLa and HEK 293 T cells are cultured in 6 well plates till attaining 70% confluency. Cells are starved for 12 h without serum and treated with PCI-34051 (20 μM) and Paclitaxel (20 μM) along with untreated control for 24 & 48 h. Examined difference in the morphology was captured by Olympus CKX41, ProgRes CT3 phase contrast microscope at 10X focussed lens.
# [8] = test system: HEK 293 T cells; assay: Cell morphology analysis, HEK 293 T; assay type: cell-based, human; details: 20 μM, 24 & 48 h, vs control
# Protocol: as §4
# [9] = test system: tubulin polymerization; details: cited from earlier work
# Excerpt: Tubulins are one of the major cytoskeletal proteins and consists of alpha, beta and gamma tubulin proteins in the family. Acetylated alpha tubulin is known to stabilize microtubules and effect intracellular transport, cell migration and primary determinant for cell morphology. HDAC8 inhibition impedes the migration property in HeLa in turn affecting the morphology.
"cytoplasmic HDAC8 activity ([1]; HeLa and HEK 293 T, cytoplasmic fraction (5 μg))","nuclear HDAC8 enzyme activity (discussion statement) ([1]; HeLa and HEK 293 T, nuclear fraction (5 μg))",Compound,"HDAC8 enzyme activity, nuclear fraction ([1]; HEK 293 T)","HDAC8 enzyme activity, nuclear fraction ([1]; HeLa)",localization of HDAC8 [2],levels of acetylated alpha tubulin [3],levels of acetylated alpha tubulin ([3]; listed as forskolin),levels of acetylated alpha tubulin [4],levels of acetylated alpha tubulin ([4]; listed as forskolin),effect on HDAC8 [5],migration efficiency (rank order) [6],cell morphology (cell size) [7],cell morphology (aggregation / clump formation) [8],consequence of inhibition of tubulin polymerization [9]
decreased,increased,C=C[C@@]1(C)CC(=O)[C@]2(O)[C@@]3(C)[C@@H](O)CCC(C)(C)[C@@H]3[C@H](O)[C@H](OC(C)=O)[C@@]2(C)O1 [Forskolin],significant increase in the nuclear fraction,significant increase in the nuclear fraction,no difference in localization of HDAC8,ac-alpha tubulin levels increase,increased significantly; also recorded: significant increase of acetylated tubulin expression,ac-alpha tubulin levels increase,increased significantly,known to inactivate HDAC8 by phosphorylation,,,,
,,CC(=O)O[C@H]1C(=O)[C@@]2(C)[C@H]([C@H](OC(=O)c3ccccc3)[C@]3(O)C[C@H](OC(=O)[C@H](O)[C@@H](NC(=O)c4ccccc4)c4ccccc4)C(C)=C1C3(C)C)[C@]1(OC(C)=O)CO[C@@H]1C[C@@H]2O [Paclitaxel],,,,,,,,,Control> > Paclitaxel>PCI-34051,reduced (shrinking) cell size; also recorded: decreased cell size (shrinking),clump formation; also recorded: cell aggregation,cell-cycle arrest and cell death
